Laboratory results reported in paper PMC11359809, “Probing the molecular basis for signal transduction through the Zinc-Activated Channel (ZAC)” (Biochemical pharmacology, 2021).

How the values were obtained:
[1] = target: T1, ZAC^D118A (Homo sapiens, UniProt Q401N2, A152T/D142A); test: TEVC in oocytes, ZAC D118A mutant; assay type: cell-based
T1 construct: expressed in transfected cells; host or cells: Xenopus oocytes injected with cRNA (pUNIV vector)
Procedure: (§1) The recordings were performed at room temperature.
(§2) Analysis of the data from the TEVC recordings were performed using Clampfit software version 10.5 (Molecular Devices, Crawley, UK) and GraphPad Prism version 7.0c (GraphPad Software, La Jolla, CA). Unless otherwise stated, the inward currents induced by agonists in oocytes were normalized to the maximal response elicited by a specific agonist (agonist Imax) on each oocyte. Concentration-response and concentration-inhibition curves were fitted in GraphPad Prism by nonlinear regression using the equation for sigmoidal dose-response with variable slope. Each data point represents the mean ± S.E.M. value of recordings performed on at least five oocytes in total from at least two different batches. […] The null hypothesis was rejected at P < 0.05, and the differences between the means were analyzed by Tukey’s multiple comparisons test.
(§3) The putative involvement of candidate residues in Clusters 1, 2, 3 and 4 in Zn^2+ binding to ZAC was investigated in by an elaborate alanine mutagenesis scanning. […] The determined IpH 4.0 value was used in part as a control and in part to enable the distinction of ZAC mutants non-responsive to Zn^2+ due to elimination of their ability to bind the metal ion from those where the mutation had eliminated cell surface expression and/or disrupted overall functionality of the receptor complex. […]

[2] = target: T2, ZAC^H166A (Homo sapiens, UniProt Q401N2, A152T/H190A); test: TEVC in oocytes, ZAC H166A mutant; assay type: cell-based
T2 construct: expressed in transfected cells; host or cells: Xenopus oocytes injected with cRNA (pUNIV vector)
T2 sequence (Q401N2 26-412 A152T/H190A): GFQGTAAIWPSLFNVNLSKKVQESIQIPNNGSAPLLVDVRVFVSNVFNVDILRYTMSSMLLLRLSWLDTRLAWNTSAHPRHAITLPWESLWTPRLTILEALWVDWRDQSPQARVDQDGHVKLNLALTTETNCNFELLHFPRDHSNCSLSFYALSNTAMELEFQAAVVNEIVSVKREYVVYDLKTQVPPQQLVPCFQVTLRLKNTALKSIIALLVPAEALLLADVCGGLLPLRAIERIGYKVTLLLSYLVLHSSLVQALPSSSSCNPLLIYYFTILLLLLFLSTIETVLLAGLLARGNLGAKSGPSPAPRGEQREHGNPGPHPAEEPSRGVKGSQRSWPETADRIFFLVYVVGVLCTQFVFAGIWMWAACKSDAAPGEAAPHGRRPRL
Procedure: as §1, §2, §3

[3] = target: T3, ZAC^E136A/H139A/D143A/H144A (Homo sapiens, UniProt Q401N2, A152T/D167A/E160A/H163A/H168A); test: TEVC in oocytes, Cluster 2 quadruple mutant; assay type: cell-based; settings: Zn^2+ 10 mM; H^+ pH 4.0; data not shown
T3 construct: expressed in transfected cells; host or cells: Xenopus oocytes injected with cRNA (pUNIV vector)
T3 sequence (Q401N2 26-412 A152T/E160A/H163A/D167A/H168A): as the sequence (Q401N2 26-412 A152T/H190A) above, with E135A, H138A, D142A, H143A, A165H counted along it
Procedure: as §1, §2, §3

[4] = target: T4, ZAC^E89A/D105A (Homo sapiens, UniProt Q401N2, A152T/D129A/E113A); test: TEVC in oocytes, ZAC E89A/D105A mutant; assay type: cell-based
T4 construct: expressed in transfected cells; host or cells: Xenopus oocytes injected with cRNA (pUNIV vector)
T4 sequence (Q401N2 26-412 E113A/D129A/A152T): as the sequence (Q401N2 26-412 A152T/H190A) above, with E88A, D104A, A165H counted along it
Procedure: as §1, §2, §3

[5] = target: T5, ZAC^L9′T (Homo sapiens, UniProt Q401N2, A152T/L270T); test: TEVC in oocytes, ZAC L9′T mutant; assay type: cell-based; settings: agonist; n = 6
T5 construct: expressed in transfected cells; host or cells: Xenopus oocytes (cRNA injection, pUNIV vector)
T5 sequence (Q401N2 26-412 A152T/L270T): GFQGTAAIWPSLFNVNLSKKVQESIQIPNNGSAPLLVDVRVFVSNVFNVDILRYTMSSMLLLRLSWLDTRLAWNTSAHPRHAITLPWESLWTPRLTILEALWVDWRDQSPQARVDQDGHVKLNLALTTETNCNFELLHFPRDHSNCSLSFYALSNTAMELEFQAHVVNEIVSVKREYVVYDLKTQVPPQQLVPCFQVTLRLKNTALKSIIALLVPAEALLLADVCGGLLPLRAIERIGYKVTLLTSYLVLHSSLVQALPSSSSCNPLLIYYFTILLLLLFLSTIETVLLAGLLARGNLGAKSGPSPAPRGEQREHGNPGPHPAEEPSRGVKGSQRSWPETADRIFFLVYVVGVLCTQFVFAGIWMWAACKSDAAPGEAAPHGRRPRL
Procedure: as §1
Analysis of the data from the TEVC recordings were performed using Clampfit software version 10.5 (Molecular Devices, Crawley, UK) and GraphPad Prism version 7.0c (GraphPad Software, La Jolla, CA). Unless otherwise stated, the inward currents induced by agonists in oocytes were normalized to the maximal response elicited by a specific agonist (agonist Imax) on each oocyte. Concentration-response and concentration-inhibition curves were fitted in GraphPad Prism by nonlinear regression using the equation for sigmoidal dose-response with variable slope. Each data point represents the mean ± S.E.M. value of recordings performed on at least five oocytes in total from at least two different batches. For the data where statistical analysis was performed, a one-way ANOVA was used. The null hypothesis was rejected at P < 0.05, and the differences between the means were analyzed by Tukey’s multiple comparisons test.

[6] = test system: ZAC^FPM/hα1-Gly; test: TEVC in oocytes, Cys-loop modified chimera ZAC^FPM/hα1-Gly; assay type: cell-based, human; settings: data not shown
Procedure: as §1
To probe the effects of exchanges of regions involved in the ECD/TMD cross-talk between the two CLRs fused in a chimera on its functionality, we constructed 12 additional chimeras, three for each of the four original chimeras (Fig. 1A). Inspired by the similar modifications that have been introduced in a functional GLIC/hα1-Gly chimera, we swapped one or both of two specific regions: the three-residue FPX (Phe-Pro-X) motif in the Cys-loop of the ECD (FPR, FPF and […] in ZAC, m5-HT3A and hα1 GlyR, respectively), which is known to protude into proximity of the M2-M3 linker during the ECD/TMD cross-talk, and the extracellular C-terminus of the TMD, which differs substantially in both amino acid sequence and length between ZAC and the two classical CLRs combined with it in the chimeras (Fig. 4B). […] In light of this, it was not surprising that the four chimeras comprising exchanges of both the FPX motif and the C-terminus also were non-functional (data not shown).

T1 sequence (Q401N2 26-412 D142A/A152T): as the sequence (Q401N2 26-412 A152T/H190A) above, with D117A, A165H counted along it

[Cl-].[Cl-].[Zn+2] [Zn^2+, ZnCl2]
agonist properties compared to WT ZAC [1]: did not differ substantially
agonist properties compared to WT ZAC [2]: WT-like agonist properties
agonist responsiveness [3]: non-responsive
concentration-response relationship compared to WT ZAC [4]: very similar to that at WT ZAC
EC50 [5]: 66 µM
nH ± S.E.M. (Hill slope) [5]: 0.7 ± 0.4
pEC50 ± S.E.M. [5]: 4.18 ± 0.34
concentration-response relationship compared to ZAC/hα1-Gly [6]: not significantly different
